The values below come from patent US20160010142A1, “Compositions and Methods For Analysis of C02 Absorption” (NOVOZYMES NORTH AMERICA, INC., priority 2013, published 2016).

Data set [1] concerns carbonic anhydrase. As to the kind of experiment: Effect of salt on carbonic anhydrase activity, 50 mM bicine/cresol red assay. To be noted: form of the enzyme that precipitates in the absence of salt. Format: biochemical. The procedure: The measurement of CO2 absorption enhancement by carbonic anhydrase was performed as described in Example 1 except the assay reagent contains 50 mM bicine at pH 8.65+/−0.05. This embodiment of the assay reagent delays the assay response relative to Example 1. Such a delay expands the “assay window” (from 5.1 to 6.7 seconds, inclusive, in Example 1; to 6.8 to 9.9 seconds, inclusive), and permits analysis of more data points.
When required, such as for stability of certain forms of carbonic anhydrase, additional compounds, such as salts, for example sodium chloride, can be added to the assay reagent. This embodiment of the assay reagent leads to an improved measure of carbonic anhydrase activity for forms of the enzyme which, in the absence of salt, may aggregate, precipitate, or otherwise change their form and alter the result in the assay measurement of CO2 absorption enhancement. The required concentration of salt is expected to be enzyme dependent, and the assay can be used to determine the optimal salt concentration required for optimal enzyme activity determination.
FIG. 3 presents the effect of salt concentration on the determination of carbonic anhydrase activity for a form of the enzyme that precipitates in the absence of salt.

The conditions of data set [2]: cited from earlier work.
For data set [3], the system named is carbonic anhydrase. The data set can be described thus: Carbonic anhydrase activity before and after zinc addition, bicine/cresol red CO2 hydration assay. Format: biochemical, microbial origin. To be noted: for fold improvement: activity with 3.5 mM zinc salt versus assay sample without zinc; for Activity (U/mL): zinc deficient enzyme sample incubated with 3.5 mM zinc salt overnight at room temperature. How it is done: A solution containing 25 mM bicine and 123 micromolar (0.05 g/L) cresol-red (pH 8.3) is prepared as the assay reagent. The assay substrate is prepared at room temperature by bubbling CO2 gas into either a 125 mL Erlenmeyer flask containing 100 mL deionized H2O (dH2O) or a 50 ml plastic conical tube containing 30 mL dH2O. Bubbling proceeds for at least 10 minutes to yield a saturated CO2(aq) solution ([CO2]˜30 mM (Kernohan, J. C. 1965. Biochim. Biophys. Acta 96: 304). Carbonic anhydrase test samples are diluted for the assay using the assay reagent as diluent. A set of assay samples, made by 5- or 6-×0.7-fold serial dilutions of the enzyme test sample, are loaded onto a 96-well microtiter plate. Eight replicate wells each containing 100 microliters of each dilution are plated. Corresponding blank wells are loaded on the same plate in alternating columns with the assay sample wells. Blank wells contain either assay reagent alone or a 5- or 6-×0.7-fold serial dilution set of a modified enzyme test sample, where the modification involves removing or inactivating the active enzyme of the test sample.
The plate is inserted into a temperature controlled plate reader equipped with a liquid dispenser unit with the inject head immersed in the aqueous CO2 substrate solution. Initial absorbance of a single well is collected, followed by injection of 100 microliters of aqueous CO2 substrate into a single well and kinetic absorbance reads are collected at fixed time intervals (e.g., every 0.5 seconds) for that well such that the rate of absorbance change can be measured and used to indicate the rate of CO2 hydration. After approximately 5-10 seconds the reaction is no longer monitored and the process is repeated for all subsequent wells. Data automatically collected on the instrument is saved or exported in Microsoft Excel file format and copy/pasted into the Microsoft Excel automated data processing template. The data collected for each well is automatically checked for a linear slope (change in absorbance with change in time) within a selected “assay window” indicating the enzyme in that well was saturated with substrate during the assay window. The assay window is a sub-set of data points collected between selected time points for each well. The assay window for all wells in this example are the same. The slope of the data collected from an individual well assay window is called the “assay slope.” Wells passing the “linearity test” are averaged for a particular dilution to determine the “average assay slope” for that particular dilution. Next, a T-test between blank and assay sample replicates determines the probability that the differences between the two data sets could arise by chance, improving data quality by ensuring that data from an excessively diluted assay sample are not included in calculations of enzyme activity. If at least 3 dilution sets pass the T-test (T-test value <0.05), and at least 4 out of 8 replicate wells for those dilutions pass the “linearity test,” the average assay slope (change in absorbance per unit time) for each accepted dilution is plotted versus the amount of enzyme present in that dilution. […]
Carbonic anhydrase activity improvement was evaluated by measuring enzyme activity before and after zinc addition according to the method of Example 1. […]

For data set [4] the following is noted: compared to other indicators with similar pKas, such as phenol red; cited from earlier work.

The pKa is the pH at which an ionisable group is half protonated.

Consider `[Cl-].[Na+]` [NaCl, sodium chloride], for which the “effect of salt addition on activity of a carbonic anhydrase test sample” value in data set [1] is recorded as “improve the activity”.

On to `NC(CO)(CO)CO` [Tris], for which the pKa in data set [2] is on record as 8.0.

With `CCC1(CC)C(=O)NC(=O)NC1=O` [Veronal], the pKa in data set [2] is recorded as 8.0.

Take `[Cl-].[Cl-].[Zn+2]` [ZnCl2]: in data set [3], the fold improvement was 9 (ZnCl2) fold and the “Activity (U/mL)” value is on record as 5800 (ZnCl2) U/mL.

As for `O.O.O.O.O.O.O.O=S(=O)([O-])[O-].[Zn+2]` [ZnSO4 × 7H2O, ZnSO4×7 H2O], in data set [3], the fold improvement is on record as 10 (ZnSO4 × 7H2O) fold and the “Activity (U/mL)” value was 6400 (ZnSO4 × 7H2O) U/mL.

As for `Cc1cc(C2(c3ccc(O)c(C)c3)OS(=O)(=O)c3ccccc32)ccc1O` [cresol red, o-Cresolsulfonephthalein], the water solubility result in data set [4] is reported as “relatively high water solubility”. Also, in data set [2], the pKa is 8.32.

Turning to `[Zn]` [zinc], in data set [3], the fold improvement entry is given as “around 10 fold”.
